Results taken from patent US5041426A, “Immune system enhancing 3-β-d-ribofuranosylthiazolo[4,5-d]pyridimine nucleosides and nucleotides” (priority 1988, dated 1991).

Assays:
P388 [1] = assay: Response of P388 inoculated mice to various dosages, inocula and schedules; format: in vivo, mouse
From the text: For this example varying concentrations of the number of test cells utilized for P388 inoculum and concentrations of compound 7 were utilized with various schedules of drug administration.
^a P388 ascites cells were implanted ip in the concentrations
indicated in BDF1 female mice on day 0, and ip bolus injections of
drug were delivered once daily on the days indicated in the conentrations
indicated. Control mice received a 0.09% solution of NaCl delivered on th

Human Coronavirus = assay: Antiviral activity against human coronavirus infection in 14 day old mice; settings: half daily doses at -24 and -18 h, of mice that died
P8/5 tumor target cells = assay: Activation of macrophages following single injection in CBA/CaJ mice; format: in vivo; settings: Mus musculus, Macrophage
Protocol: The activity of compound 7 with respect to its ability to activate macrophages was tested by injecting CBA/CaJ mice with a single dose of compound 7 (2 mg per mouse) and after 24 hours the cytotoxicity of the spleen cells (SC), non adherent SC and adherent SC was determined.
^a A group of four mice (CBA/CaJ) were injected with 2 mg/mouse of
compound -7 solution. Control group received saline. After 24 hours of
injection, spleens were harvested. Adherent and nonadherent cells were
separated by incubation of spleen cells on plastic plates for one hour.
Cell suspension of spleen cells, nonadherent cells (NC) and adherent cell
(AC) were prepared in complete medium. Cytotoxicity of SC, NC and AC was
then measured against P8/5 tumor t arget cells in 4 hrs and 20 hrs
chromium release assay.

YAC1 target cells [2] = assay: Natural killer cell activity in nude/nude mice (in vivo treatment, spleen cells); design: species or system mouse
From the text: Compound 7 was also able to potentiate markedly the natural killer cell activity in T cell deficient (nude/nude) mice as is shown in Table 6.
^a Three mice in each group received saline or compound 7 through i.p
route, spleens were removed one day after the treatment, cells were
cells. Each value represents average ±SD cytotoxic activity of three

P388 [3] = assay: Mean life span and viable tumor cells of P388 inoculated mice, by delivery schedule; format: in vivo, mouse; settings: qd; for Postinoculation Life Span: pooled 37, 62 or 104 mg/kg/injection; for Change in Life Span / Viable Cells Day 6: pooled doses
Protocol: In this example as summarized in table 30, different drug delivery regimen were utilized for compound 7 against P388 in the mouse and the postinoculation life span, the change in life span and the number of viable tumor cells at day 6 measured. For this test the data shown are pooled by schedule without regard for dosage. Each treatment group included a total of 15 mice divided into sub-groups of 5 mice treated respectively with 37, 62 or 104 mg/kg/injection of drug per sub-group. After treatment the test animals were monitored for survival.
^a P388 ascites cells (1 × 10^6) were implanted ip in
BDF1 female mice on day 0, and ip bolus injections of drug were
delivered once daily on the days indicated. The drug was delivered on the
basis of 0.01 ml/g mouse weight. Control mice received a 0.09% solution o
NaCl delivered on the same basis.

YAC1 target cells [4] = assay: Natural killer cell activity in old C57BL/6J mice (in vivo treatment, spleen cells); design: species or system mouse
Protocol: For this test compound 7 was injected at a dose of 1.67 mg per mouse and 3.34 mg per mouse and after a day the natural killer cell activity of the spleen cells was determined.
i.p. route. Spleens after treatment were removed, cells were isolated and […]

Rat Coronavirus = assay: Antiviral activity against rat coronavirus infection in suckling rats; format: in vivo; settings: half daily doses at -24 and -18 h, of rats that died
From the text: Four to five day old suckling rats were infected intranasally with rat coronavirus. One day previously a divided intraperitoneal dose of compound 7 or placebo was given. As shown in the following Table 19, a high percentage of the rats treated with compound 7 survived this lung infection. Further the rats that died lived longer than the placebo-treated controls.
^b Of rats that died. Survivors lived through 21 days.

SMILES: Nc1nc2c(sc(=O)n2[C@@H]2O[C@H](CO)[C@@H](O)[C@H]2O)c(=O)[nH]1 [Compound 7, 5-Amino-3-β-D-ribofuranosylthiazolo[4,5-d]pyrimidine-2,7(6H)-dione]
- groups showing an increase in life span (P388 [1]; 26 of the 34 groups): 76%
- % Increased Life Span (P388 [1]; Study 1, 1 × 10^2 cells, 37 mg/kg/inj day 1-9): 0%
- % Increased Life Span (P388 [1]; Study 1, 1 × 10^2 cells, 37 mg/kg/inj day 1, 3 mice, printed as cures): 2 cures
- % Increased Life Span (P388 [1]; Study 1, 1 × 10^2 cells, 62 mg/kg/inj day 1-9): 33%
- % Increased Life Span (P388 [1]; Study 1, 1 × 10^2 cells, 62 mg/kg/inj day 1, 3 mice, printed as cures): 1 cure
- % Increased Life Span (P388 [1]; Study 1, 1 × 10^2 cells, 104 mg/kg/inj day 1): 0%
- % Increased Life Span (P388 [1]; Study 1, 1 × 10^2 cells, 104 mg/kg/inj day 1-9): 10%
- % Increased Life Span (P388 [1]; Study 2, 1 × 10^2 cells, 8 mg/kg/inj day 1): 9%
- % Increased Life Span (P388 [1]; Study 2, 1 × 10^2 cells, 13 mg/kg/inj day 1): 7%
- % Increased Life Span (P388 [1]; Study 2, 1 × 10^2 cells, 22 mg/kg/inj day 1): 7%
- % Increased Life Span (P388 [1]; Study 2, 1 × 10^2 cells, 37 mg/kg/inj day 1): 3%
- % Increased Life Span (P388 [1]; Study 3, 1 × 10^4 cells, 37 mg/kg/inj day 1): 2%
- % Increased Life Span (P388 [1]; Study 3, 1 × 10^4 cells, 37 mg/kg/inj day 1-9): 0%
- % Increased Life Span (P388 [1]; Study 3, 1 × 10^4 cells, 62 mg/kg/inj day 1): 0%
- % Increased Life Span (P388 [1]; Study 3, 1 × 10^4 cells, 62 mg/kg/inj day 1-9): 2%
- % Increased Life Span (P388 [1]; Study 3, 1 × 10^4 cells, 104 mg/kg/inj day 1): 0%
- % Increased Life Span (P388 [1]; Study 3, 1 × 10^4 cells, 104 mg/kg/inj day 1-9): 6%
- % Increased Life Span (P388 [1]; Study 4, 1 × 10^6 cells, 37 mg/kg/inj day 1): 0%
- % Increased Life Span (P388 [1]; Study 4, 1 × 10^6 cells, 37 mg/kg/inj day 1-9): 5%
- % Increased Life Span (P388 [1]; Study 4, 1 × 10^6 cells, 62 mg/kg/inj day 1): 0%
- % Increased Life Span (P388 [1]; Study 4, 1 × 10^6 cells, 62 mg/kg/inj day 1-9): 5%
- % Increased Life Span (P388 [1]; Study 4, 1 × 10^6 cells, 104 mg/kg/inj day 1): 9%
- % Increased Life Span (P388 [1]; Study 4, 1 × 10^6 cells, 104 mg/kg/inj day 1-9): 23%
- % Increased Life Span (P388 [1]; Study 5, 1 × 10^6 cells, 37 mg/kg/inj day 2): 0%
- % Increased Life Span (P388 [1]; Study 5, 1 × 10^6 cells, 37 mg/kg/inj day 2,4): 8%
- % Increased Life Span (P388 [1]; Study 5, 1 × 10^6 cells, 37 mg/kg/inj day 2-6): 8%
- % Increased Life Span (P388 [1]; Study 5, 1 × 10^6 cells, 62 mg/kg/inj day 2): 5%
- % Increased Life Span (P388 [1]; Study 5, 1 × 10^6 cells, 62 mg/kg/inj day 2,4): 8%
- % Increased Life Span (P388 [1]; Study 5, 1 × 10^6 cells, 62 mg/kg/inj day 2-6): 15%
- % Increased Life Span (P388 [1]; Study 5, 1 × 10^6 cells, 104 mg/kg/inj day 2): 10%
- % Increased Life Span (P388 [1]; Study 5, 1 × 10^6 cells, 104 mg/kg/inj day 2,4): 5%
- % Increased Life Span (P388 [1]; Study 5, 1 × 10^6 cells, 104 mg/kg/inj day 2-6): 12%
- toxicity (P388 [1]; Study 6, 140 mg/kg/inj day 2,4,6,8, 7 mice): toxic in one animal
- % Increased Life Span (P388 [1]; Study 6, 1 × 10^6 cells, 140 mg/kg/inj day 2): 4%
- % Increased Life Span (P388 [1]; Study 6, 1 × 10^6 cells, 140 mg/kg/inj day 2,4,6,8): 21%
- % Increased Life Span (P388 [1]; Study 6, 1 × 10^6 cells, 140 mg/kg/inj day 2,6): 20%
- Mean Survival Time (Human Coronavirus; 50 mg/kg): 6.9 ± 2.2 days
- Mean Survival Time (Human Coronavirus; 100 mg/kg): 7.2 ± 2.0 days
- Mean Survival Time (Human Coronavirus; 200 mg/kg): 7.0 ± 1.4 days
- cytotoxicity at 2 mg (P8/5 tumor target cells; 4 h, adherent cells, 4 hrs assay): 37%
- cytotoxicity at 2 mg (P8/5 tumor target cells; 4 h, nonadherent spleen cells, 4 hrs assay): 45%
- cytotoxicity at 2 mg (P8/5 tumor target cells; 20 h, adherent cells, 20 hrs assay): 69%
- cytotoxicity at 2 mg (P8/5 tumor target cells; 20 h, nonadherent spleen cells, 20 hrs assay): 70%
- % Natural Killer Cell Cytotoxicity (YAC1 target cells [2]; 1.67 mg i.p., E:T 50:1): 43 ± 12%
- % Natural Killer Cell Cytotoxicity (YAC1 target cells [2]; 1.67 mg i.p., E:T 100:1): 56 ± 12%
- % Natural Killer Cell Cytotoxicity (YAC1 target cells [2]; 1.67 mg i.p., E:T 150:1): 61 ± 14%
- % Natural Killer Cell Cytotoxicity (YAC1 target cells [2]; 3.34 mg i.p., E:T 50:1): 38 ± 6%
- % Natural Killer Cell Cytotoxicity (YAC1 target cells [2]; 3.34 mg i.p., E:T 100:1): 56 ± 6%
- % Natural Killer Cell Cytotoxicity (YAC1 target cells [2]; 3.34 mg i.p., E:T 150:1): 61 ± 12%
- increase with respect to saline control (YAC1 target cells [2]; both doses tested): over two fold
- Postinoculation Life Span (P388 [3]; day 2,4): 8.73 ± 0.59 days
- Change in Life Span (P388 [3]; day 2,4): 7 % of Control
- Viable Cells Day 6 (P388 [3]; day 2,4): 66 % of Control
- Postinoculation Life Span (P388 [3]; day 2-6, p < 0.001): 9.13 ± 0.52 days
- Change in Life Span (P388 [3]; day 2-6): 12 % of Control
- Viable Cells Day 6 (P388 [3]; day 2-6): 49 % of Control
- Postinoculation Life Span (P388 [3]; day 2): 8.60 ± 0.51 days
- Change in Life Span (P388 [3]; day 2): 5 % of Control
- Viable Cells Day 6 (P388 [3]; day 2): 73 % of Control
- % Natural Killer Cell Cytotoxicity (YAC1 target cells [4]; 8 month old mice, 1.67 mg i.p., E:T 50:1): 14%
- % Natural Killer Cell Cytotoxicity (YAC1 target cells [4]; 8 month old mice, 1.67 mg i.p., E:T 100:1): 19%
- % Natural Killer Cell Cytotoxicity (YAC1 target cells [4]; 8 month old mice, 1.67 mg i.p., E:T 150:1): 23%
- % Natural Killer Cell Cytotoxicity (YAC1 target cells [4]; 8 month old mice, 3.34 mg i.p., E:T 50:1): 17%
- % Natural Killer Cell Cytotoxicity (YAC1 target cells [4]; 8 month old mice, 3.34 mg i.p., E:T 100:1): 28%
- % Natural Killer Cell Cytotoxicity (YAC1 target cells [4]; 8 month old mice, 3.34 mg i.p., E:T 150:1): 38%
- % Natural Killer Cell Cytotoxicity (YAC1 target cells [4]; 8 week old mice, 1.67 mg i.p., E:T 50:1): 15%
- % Natural Killer Cell Cytotoxicity (YAC1 target cells [4]; 8 week old mice, 1.67 mg i.p., E:T 100:1): 20%
- % Natural Killer Cell Cytotoxicity (YAC1 target cells [4]; 8 week old mice, 1.67 mg i.p., E:T 150:1): 24%
- % Natural Killer Cell Cytotoxicity (YAC1 target cells [4]; 8 week old mice, 3.34 mg i.p., E:T 50:1): 17%
- % Natural Killer Cell Cytotoxicity (YAC1 target cells [4]; 8 week old mice, 3.34 mg i.p., E:T 100:1): 27%
- % Natural Killer Cell Cytotoxicity (YAC1 target cells [4]; 8 week old mice, 3.34 mg i.p., E:T 150:1): 31%
- Mean Survival Time (Rat Coronavirus; 50): 10.1 ± 2.3 days
- Mean Survival Time (Rat Coronavirus; 100): 10.2 ± 1.8 days
- Mean Survival Time (Rat Coronavirus; 200): 13.0 ± 1.0 days
